US11396501B2, “Heteroaryl compounds as CXCR4 inhibitors, composition and method using the same” (CGENETECH (SUZHOU, CHINA) CO., LTD., priority 2017, dated 2022)

target: CXCR4 (Homo sapiens, UniProt P61073); experiment: HPB-ALL CXCR4 competitive binding assay (12G5 binding assay); set-up: HPB-ALL cells were maintained in RPMI-1640 (Gibico) supplemented with 10% FBS (Hyclone); endogenous in cells; host or cells: HPB-ALL cells; details: HPB-ALL cells; competition with APC-conjugated anti-human CXCR4 clone 12G5 at its EC80; 4° C. for 3 h; FACS
Procedure: HPB-ALL CXCR4 Competitive Binding Assay
HPB-ALL cells were maintained in RPMI-1640 (Gibico) supplemented with 10% FBS (Hyclone). APC-conjugated anti-human CXCR4 was from Sungene. EC80 was first determined for 12G5 binding to CXCR4. Then the compounds for testing were added into 96-well plates serially diluted at a ratio of 1:3. Cells were washed once with ice-cold assay buffer (DPBS+2% HI-FBS) and then re-suspended in the same buffer at a final concentration of 1×10^6/mL. Cell suspension was then added into the wells and with the addition of APC-conjugated anti-human CXCR4 clone 12G5 at its EC80 determined. The mix of cell, compounds and APC-conjugated anti-human CXCR4 were incubated at 4° C. for 3 h before addition of 100 μL of 4% PFA. Cells were then washed once and resuspended in assay buffer and examined by FACS. The percent (%) effect at each concentration of compound was calculated and relative to the amount of calcium produced in the positive and negative control wells contained within each assay plate. The concentrations and % effect values for tested compounds were plotted and the concentration of compound required for 50% effect (IC50) was determined. Tables 2 summarize results of the CXCR4 competitive binding assay for selected compounds disclosed in the present disclosure. FIGS. 1-2 depict the IC50 curves of compounds A42 and A43.

Sequence of CXCR4 (P61073 whole entry): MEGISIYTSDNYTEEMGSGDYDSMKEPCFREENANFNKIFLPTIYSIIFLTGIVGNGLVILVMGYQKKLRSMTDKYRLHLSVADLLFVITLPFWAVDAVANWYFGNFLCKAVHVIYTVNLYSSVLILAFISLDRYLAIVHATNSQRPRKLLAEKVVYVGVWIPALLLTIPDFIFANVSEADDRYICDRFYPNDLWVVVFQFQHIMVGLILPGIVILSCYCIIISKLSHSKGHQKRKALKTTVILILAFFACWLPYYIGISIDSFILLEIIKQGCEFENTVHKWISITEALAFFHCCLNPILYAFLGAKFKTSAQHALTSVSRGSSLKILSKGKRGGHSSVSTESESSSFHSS

SMILES | IC50 [nM]
CN(C)CCN(C)c1cc(CN(C)C2CCCc3cccnc32)ncn1 (stereo not shown) [Compound A2] | 228
CC(c1ccccn1)N(C)Cc1cc(N2CCN(C)CC2)ncn1 (stereo not shown) [Compound A4] | 229
CN(Cc1cc(N2CCN(CCO)CC2)ncn1)C1CCCc2cccnc21 (stereo not shown) [Compound A5] | 113
COCCN1CCN(c2cc(CN(C)C3CCCc4cccnc43)ncn2)CC1 (stereo not shown) [Compound A6] | 1140
CN(Cc1cc(N2CCNCC2)ncn1)C1CCCc2cccnc21 (stereo not shown) [Compound A7, N-methyl-N-((6-(piperazin-1-yl)pyrimidin-4-yl)methyl)-5,6,7,8-tetrahydroquinolin-8-amine] | 393
CN(Cc1cc(N2CCN(CCC#N)CC2)ncn1)C1CCCc2cccnc21 (stereo not shown) [Compound A8, 3-(4-(6-((methyl(5,6,7,8-tetrahydroquinolin-8-yl)amino)methyl)pyrimidin-4-yl)piperazin-1-yl)propanenitrile] | 242
CC(C)N1CCN(c2cc(CN(C)C3CCCc4cccnc43)ncn2)CC1 (stereo not shown) [Compound A24] | 42
CN(C)C1CCN(c2cc(CN(C)C3CCCc4cccnc43)ncn2)CC1 (stereo not shown) [Compound A25] | 100
CN(Cc1cc(NCCN2CCOCC2)ncn1)C1CCCc2cccnc21 (stereo not shown) [Compound A26] | 41
CSc1nc(CN(C)C2CCCc3cccnc32)c(C)c(N2CCN(C)CC2)n1 (stereo not shown) [Compound A27] | 7.9
CSc1nc([C@H](C)N(C)[C@H]2CCCc3cccnc32)cc(N2CCN(C)CC2)n1 [Compound A32] | 22
CSc1nc([C@H](C)N(C)[C@@H]2CCCc3cccnc32)cc(N2CCN(C)CC2)n1 [Compound A33] | 268
CSc1nc([C@@H](C)N(C)[C@H]2CCCc3cccnc32)cc(N2CCN(C)CC2)n1 [Compound A34] | 47
CSc1nc([C@@H](C)N(C)[C@@H]2CCCc3cccnc32)cc(N2CCN(C)CC2)n1 [Compound A35] | 106
CSc1nc(CN(C)C(CCCCNC(=O)OC(C)(C)C)c2ccccn2)cc(N2CCN(C)CC2)n1 (stereo not shown) [Compound A36] | 5730
Cc1nc(CN(C)C(CCCNC(=O)OC(C)(C)C)c2ccccn2)cc(N2CCN(C)CC2)n1 (stereo not shown) [Compound A37] | 4430
Cc1nc(CN(C)C(CCCN)c2ccccn2)cc(N2CCN(C)CC2)n1 (stereo not shown) [Compound A38] | 6940
CN(C)C1CCN(c2cc(CN(C)C3CCCc4cccnc43)ncn2)C1 (stereo not shown) [Compound A39] | 94

SMILES | IC50 [nM]
CSc1nc(CN(C)C2c3ncccc3CCC23CC3)cc(N2CCN(C)CC2)n1 (stereo not shown) [Compound A40] | 110
Cc1nc(CN(C)C2c3ncccc3CCC23CC3)cc(N2CCN(C)CC2)n1 (stereo not shown) [Compound A41] | 97
CCN(Cc1cc(N2CCN(C)CC2)nc(C)n1)C1c2ncccc2CCC12CC2 (stereo not shown) [Compound A44] | 296
CCN1CCN(c2cc(CN(C)C3c4ncccc4CCC34CC4)nc(C)n2)CC1 (stereo not shown) [Compound A45] | 886
Cc1nc(CN(C)C(C)c2ccccn2)cc(N2CCN(C)CC2)n1 (stereo not shown) [Compound A52] | 27
Cc1nc(CN(C)C(C)c2ncccc2C)cc(N2CCN(C)CC2)n1 (stereo not shown) [Compound A53] | 33
Cc1ccnc(C(C)N(C)Cc2cc(N3CCN(C)CC3)nc(C)n2)c1 (stereo not shown) [Compound A54] | 356
Cc1ccc(C(C)N(C)Cc2cc(N3CCN(C)CC3)nc(C)n2)nc1 (stereo not shown) [Compound A55] | 44
Cc1cccc(C(C)N(C)Cc2cc(N3CCN(C)CC3)nc(C)n2)n1 (stereo not shown) [Compound A56] | 131
CN(Cc1cc(N2CCN(CC3CC3)CC2)ncn1)C1CCCc2cccnc21 (stereo not shown) [Compound A60] | 464
Cc1nc(CN(C)C(C)(C)c2ccccn2)cc(N2CCN(C)CC2)n1 [Compound A62] | 2290
Cc1nc(CN(C)[C@H]2CCCc3cccnc32)cc(N2CCN(C)C[C@H]2C)n1 [Compound A63, (S)-N-((6-((R)-2,4-dimethylpiperazin-1-yl)-2-methylpyrimidin-4-yl)methyl)-N-methyl-5,6,7,8-tetrahydroquinolin-8-amine] | 29
Cc1nc(CN(C)[C@H]2CCCc3cccnc32)cc(N2CCN(C)C[C@@H]2C)n1 [Compound A64] | 21
Cc1nc(CN(C)[C@H]2CCCc3cccnc32)cc(N2C[C@@H](C)N(C)[C@@H](C)C2)n1 [Compound A67] | 12
Cc1nc(CN(C)[C@H]2CCCc3cccnc32)cc(NCCCN2CCOCC2)n1 [Compound A70] | 54
Cc1nc(CN(C)[C@H]2CCCc3cccnc32)cc(NCCN2CCOCC2)n1 [Compound A71] | 90
Cc1nc(CN(C)[C@H]2CCCc3cccnc32)cc(N2CCC(N3CCOCC3)CC2)n1 [Compound A72] | 146
Cc1nc(CN(C)[C@H]2CCCc3cccnc32)cc(N2CCN(C)CC2CO)n1 (stereo partly shown) [Compound A73] | 32

Results, then the molecule that gave them:

IC50 [nM] | SMILES
19 | CSc1nc(CN(C)C2CCCc3cccnc32)cc(N2CCN(C)CC2)n1 (stereo not shown) [Compound A3]
14 | Cc1nc(CN(C)C2CCCc3cccnc32)cc(N2CCN(C)CC2)n1 (stereo not shown) [Compound A9, N-methyl-N-((2-methyl-6-(4-methylpiperazin-1-yl)pyrimidin-4-yl)methyl)-5,6,7,8-tetrahydroquinolin-8-amine]
23 | COc1nc(CN(C)C2CCCc3cccnc32)cc(N2CCN(C)CC2)n1 (stereo not shown) [Compound A10]
26 | CN1CCN(c2cc(CN(C)C3CCCc4cccnc43)nc(C3CC3)n2)CC1 (stereo not shown) [Compound A11]
8000 | CN1CCN(c2cc(CN(C)C3CCCc4cccnc43)nc(N(C)C)n2)CC1 (stereo not shown) [Compound A12]
8000 | CN1CCN(c2cc(CN(C)C3CCCc4cccnc43)nc(N3CCCC3)n2)CC1 (stereo not shown) [Compound A13]
2250 | CN1CCN(c2cc(CN(C)C3CCCc4cccnc43)nc(N3CCOCC3)n2)CC1 (stereo not shown) [Compound A14]
606 | CN1CCN(c2cc(CN(C)C3CCCc4cccnc43)nc(N(C)CCO)n2)CC1 (stereo not shown) [Compound A15]
17 | CN1CCN(c2cc(CN(C)C3CCCc4cccnc43)nc(N)n2)CC1 (stereo not shown) [Compound A16]
2690 | CN1CCN(c2cc(CN(C)C3CCCc4cccnc43)nc(-c3ccccc3)n2)CC1 (stereo not shown) [Compound A17]
43 | CNc1nc(CN(C)C2CCCc3cccnc32)cc(N2CCN(C)CC2)n1 (stereo not shown) [Compound A18]
67 | CCNc1nc(CN(C)C2CCCc3cccnc32)cc(N2CCN(C)CC2)n1 (stereo not shown) [Compound A19]
210 | CC(C)Nc1nc(CN(C)C2CCCc3cccnc32)cc(N2CCN(C)CC2)n1 (stereo not shown) [Compound A20]
790 | CN1CCN(c2cc(CN(C)C3CCCc4cccnc43)nc(-c3cnn(C)c3)n2)CC1 (stereo not shown) [Compound A21]
34 | CCN1CCN(c2cc(CN(C)C3CCCc4cccnc43)ncn2)CC1 (stereo not shown) [Compound A23]
21 | CCc1nc(CN(C)C2CCCc3cccnc32)cc(N2CCN(C)CC2)n1 (stereo not shown) [Compound A28]
78 | CC(C)c1nc(CN(C)C2CCCc3cccnc32)cc(N2CCN(C)CC2)n1 (stereo not shown) [Compound A29]

IC50 [nM] | SMILES
65 | CCOc1nc(CN(C)C2CCCc3cccnc32)cc(N2CCN(C)CC2)n1 (stereo not shown) [Compound A30]
77 | CC(C)Oc1nc(CN(C)C2CCCc3cccnc32)cc(N2CCN(C)CC2)n1 (stereo not shown) [Compound A31]
11 | CCN1CCN(c2cc(CN(C)[C@H]3CCCc4cccnc43)nc(C)n2)CC1 [Compound A43]
161 | Cc1nc(CN(C)C2CC3(CC3)Cc3cccnc32)cc(N2CCN(C)CC2)n1 (stereo not shown) [Compound A46]
58 | Cc1nc(CN(C)[C@H]2CCCc3cccnc32)cc(N2CCN(C3CC3)CC2)n1 [Compound A47]
240 | CN1CCN(c2cc(CN(C)[C@H]3CCCc4cccnc43)nc(C(F)(F)F)n2)CC1 [Compound A48]
123 | Cc1nc(CN(C)[C@H]2CCCc3cccnc32)cc(N2CCN(C3COC3)CC2)n1 [Compound A49]
211 | CN1CCN(c2ccnc(CN(C)C3CCCc4cccnc43)n2)CC1 (stereo not shown) [Compound A50, N-methyl-N-((4-(4-methylpiperazin-1-yl)pyrimidin-2-yl)methyl)-5,6,7,8-tetrahydroquinolin-8-amine]
16 | Cc1nc(CN(C)C2CCCc3cccnc32)c(F)c(N2CCN(C)CC2)n1 (stereo not shown) [Compound A51]
21 | CCN(Cc1cc(N2CCN(C)CC2)nc(C)n1)C1CCCc2cccnc21 (stereo not shown) [Compound A57]
19 | CCN(Cc1cc(N2CCN(C)CC2)nc(C)n1)[C@H]1CCCc2cccnc21 [Compound A58]
63 | Cc1nc(CN(CC2CC2)C2CCCc3cccnc32)cc(N2CCN(C)CC2)n1 (stereo not shown) [Compound A59]
13 | Cc1nc(CN(C)[C@H]2CCCc3cccnc32)cc(N2CCN(C)[C@H](C)C2)n1 [Compound A65]
20 | Cc1nc(CN(C)[C@H]2CCCc3cccnc32)cc(N2CCN(C)[C@@H](C)C2)n1 [Compound A66]
46 | Cc1nc(CN(C)[C@H]2CCCc3cccnc32)cc(N2CCN3CCC[C@@H]3C2)n1 [Compound A68]
27 | Cc1nc(CN(C)[C@H]2CCCc3cccnc32)cc(N2CCN3CCC[C@H]3C2)n1 [Compound A69]
100 | Cc1nc(CN(C)[C@H]2CCCc3cccnc32)cc(N2CCC(N3CCN(C)CC3)CC2)n1 [Compound A74]
